Tests used:
[1] = biological target: T1, 5-hydroxytryptamine receptor 2A (Homo sapiens, UniProt P28223); assay: Functional agonist activity of compound was determined by fluorescence-based assay measuring intracellular calcium mobilization for 5-HT2a receptor cell line
[2] = biological target: T1, 5-hydroxytryptamine receptor 2A; assay: Functional antagonist activity of compound was determined by fluorescence-based assay measuring intracellular calcium mobilization for 5-HT2a receptor cell line
[3] = biological target: T2, 5-hydroxytryptamine receptor 2C (Homo sapiens, UniProt P28335); assay: In vitro binding affinity towards human 5-hydroxytryptamine 2C receptor expressed in HEK293 cells was determined using [3H]mesulergine as radioligand; type: cell-based
T2 sequence (P28335 whole entry): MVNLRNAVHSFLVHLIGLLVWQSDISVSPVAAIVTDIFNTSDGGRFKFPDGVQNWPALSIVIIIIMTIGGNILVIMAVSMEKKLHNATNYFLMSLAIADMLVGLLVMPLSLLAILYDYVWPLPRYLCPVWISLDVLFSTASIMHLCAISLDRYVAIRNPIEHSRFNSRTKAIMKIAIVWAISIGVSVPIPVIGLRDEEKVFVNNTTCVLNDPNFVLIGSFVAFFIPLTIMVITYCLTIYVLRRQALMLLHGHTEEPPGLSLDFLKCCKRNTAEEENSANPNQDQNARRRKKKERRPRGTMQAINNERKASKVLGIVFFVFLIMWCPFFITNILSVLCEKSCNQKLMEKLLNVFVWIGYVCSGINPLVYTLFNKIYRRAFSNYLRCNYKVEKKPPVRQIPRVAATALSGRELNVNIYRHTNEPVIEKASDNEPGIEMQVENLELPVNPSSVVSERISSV

[4] = biological target: T1, 5-hydroxytryptamine receptor 2A; assay: In vitro binding affinity towards human 5-hydroxytryptamine 2A receptor expressed in HEK293 cells was determined using [3H]ketanserin as radioligand; type: cell-based
[5] = biological target: T2, 5-hydroxytryptamine receptor 2C; assay: Functional agonist activity of compound was determined by fluorescence-based assay measuring intracellular calcium mobilization for 5-HT2c receptor cell line
[6] = Binding ratio of compound to 5-HT2a to that of 5-HT2c was determined

T1 sequence (P28223 whole entry): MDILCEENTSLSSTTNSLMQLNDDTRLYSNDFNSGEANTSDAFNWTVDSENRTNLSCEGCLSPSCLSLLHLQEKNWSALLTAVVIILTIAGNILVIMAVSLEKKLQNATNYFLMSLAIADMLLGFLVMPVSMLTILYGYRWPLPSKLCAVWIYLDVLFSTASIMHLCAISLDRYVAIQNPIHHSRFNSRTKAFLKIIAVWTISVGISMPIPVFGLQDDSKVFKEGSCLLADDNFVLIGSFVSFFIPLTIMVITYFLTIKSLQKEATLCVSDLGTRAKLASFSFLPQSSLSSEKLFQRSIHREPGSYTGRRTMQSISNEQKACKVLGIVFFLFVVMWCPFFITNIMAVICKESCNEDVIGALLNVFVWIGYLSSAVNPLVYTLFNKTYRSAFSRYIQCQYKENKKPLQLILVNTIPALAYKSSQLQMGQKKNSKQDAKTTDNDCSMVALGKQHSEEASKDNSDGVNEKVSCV

Row | SMILES | EC50 [1] [nM] | EC50 [2] [nM] | Ki [3] [nM] | Ki [4] [nM] | EC50 [5] [nM] | Ratio [6]
1 | CNCCc1cn2c3c(cc(F)cc13)CCC2C (centres undefined) | > 10000 | 1100 | 33 | 1460 | 180 | 44
2 | NCCc1cn2c3c(cc(Cl)cc13)SCC2 | 348 |  | 47 | 631 | 0.23 | 13.4
3 | Cc1c(CCN)c2cccc3c2n1CCC3 |  |  | 225 | 676 | 9 | 3
4 | Cc1c(CCN)c2cc(F)cc3c2n1C(C)CC3 (centres undefined) |  |  | 194 | 954 | 41 | 4.9
5 | CC1CCc2cc(F)cc3c(CCN)cn1c23 (centres undefined) | 269 |  | 18 | 2340 | 5.7 | 130
6 | NCCc1cn2c3c(cccc13)CCC2 | 145 |  | 41 | 794 | 0.2 | 19.4

Reference: ChEMBL document CHEMBL1133355, “Pyrrolo[3,2,1-ij]quinoline derivatives, a 5-HT2c receptor agonist with selectivity over the 5-HT2a receptor: potential therapeutic applications for epilepsy and obesity” (Bioorg Med Chem Lett, 2000)
